Test results from ChEMBL document CHEMBL1201862, “PubChem BioAssay data set” (2004).
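Results reflect a 48-hour exposure of cells in 96-well plates to compound at five concentrations. The concentration for 50% growth inhibition is given as GI50.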 Activity calls are given as the source filed them. No stated cut-off is given here; in the data, active = GI50 up to about 1.1 µM and inactive = higher.

Columns and labels:
Assay in all cases: growth of human tumour cells (NCI), 48 h
[1] = test system: M19-MEL
[2] = test system: KM-20L2
[3] = test system: SNB-78
[4] = test system: HOP-18
[5] = test system: XF498
[6] = test system: LXFL 529
[7] = test system: DLD-1
[8] = test system: RXF 631
[9] = test system: DMS-273

Measured: GI50

COc1nc2c(nc(N)n2C2OC(CO)C(O)C(O)C2O)c(=O)n1C (configuration not stated)
inactive: [1] > 100 µM | [2] > 100 µM | [3] > 100 µM | [4] > 100 µM | [5] 75.3 µM | [6] > 100 µM | [7] > 100 µM | [8] > 100 µM

C=C1C(=O)OC2/C=C(\COC(C)=O)CCC(OC(C)=O)C3=CC(OC3=O)C12 (configuration not stated)
inactive: [2] 6.98 µM | [3] 2.67 µM | [5] 2.39 µM | [6] 1.67 µM | [7] 2.33 µM | [8] 8.13 µM | [9] 6.81 µM

O=C(/C=C/c1ccc(OCC(=O)N2CCN(c3ccccc3)CC2)cc1)c1ccccc1
inactive: [1] 11.3 µM | [2] 8.95 µM | [3] > 44.5 µM | [4] > 50 µM | [6] 19.9 µM | [7] 7.31 µM | [9] 2.99 µM

Oc1c(-c2ccccc2)nc2ccccn12
inactive: [1] > 100 µM | [2] > 100 µM | [3] > 100 µM | [5] > 100 µM | [6] > 100 µM | [7] > 100 µM | [9] > 100 µM

O=C1O[C@@H](c2ccc3c(c2)OCO3)C2C(=O)O[C@@H](c3ccc4c(c3)OCO4)C12 (some centres not stated)
inactive: [1] > 100 µM | [2] > 100 µM | [3] > 100 µM | [4] > 100 µM | [5] 25.8 µM | [8] > 100 µM | [9] > 100 µM

Cc1cccc(NC(=O)CSc2nnc(-c3ccc(/N=C\c4ccc(Cl)cc4)cc3)o2)c1
inactive: [1] > 100 µM | [2] > 100 µM | [3] > 100 µM | [4] > 100 µM | [5] > 100 µM | [6] > 100 µM | [9] > 100 µM

Nc1nccc2c1ncn2C1C=C(CO)C(O)C1O (configuration not stated)
inactive: [1] 62.5 µM | [2] > 87.1 µM | [3] > 100 µM | [4] > 96.6 µM | [5] > 46 µM | [6] > 89.1 µM | [7] 63.4 µM | [8] 83.6 µM | [9] 25.6 µM

CC1=C(C(=O)Nc2ccccc2)C(c2ccc(C3C(C(=O)Nc4ccccc4)=C(C)NC(C)=C3C(=O)Nc3ccccc3)cc2)C(C(=O)Nc2ccccc2)=C(C)N1
inactive: [1] 3.5 µM | [2] 2.04 µM | [4] 8.22 µM | [5] 7.36 µM | [6] 2.1 µM | [7] 2.38 µM | [9] 2.62 µM

CCCCCCCCCCCCOC(=S)NCCCC
inactive: [1] 32.7 µM | [2] 18.7 µM | [3] 34.4 µM | [4] 28.1 µM | [5] 16.4 µM | [6] 28.1 µM | [7] 29.4 µM | [8] 20.7 µM | [9] 18.3 µM

Oc1ccc(Br)cc1/C=N/c1ccc(/N=C/c2cc(Br)ccc2O)cc1
inactive: [2] > 100 µM | [3] > 100 µM | [7] > 100 µM

CCOC(=O)[C@@]1(C)C=C2O[C@@H]3OC4(CCCCC4)O[C@@H]3C2=C2C(O)=CC=C(O)[C@]21C(=O)OC
inactive: [1] > 68.1 µM | [2] > 68.1 µM | [3] > 68.1 µM | [4] > 68.1 µM | [5] > 68.1 µM | [6] > 68.1 µM | [7] > 68.1 µM | [8] > 68.1 µM | [9] > 68.1 µM

COc1ccccc1C1C(Cl)C(=O)N1NC(=O)Cc1ccccc1 (configuration not stated)
inactive: [1] > 100 µM | [2] 75.9 µM | [3] > 100 µM | [4] 30.7 µM | [5] > 100 µM | [6] > 100 µM | [9] 43.3 µM
